Data from patent US20240376151A1, “STAPLED PEPTIDES AND METHODS THEREOF” (FOG PHARMACEUTICALS, INC., priority 2022, published 2024).
Like-named read-outs stand apart in the source and are kept apart here. Values belong to the compound of their own block, whether it stands above or below them.

Columns and labels:
beta-catenin [1] = target: T1, beta-catenin (Homo sapiens, UniProt P35222); assay: SPR binding of Helicons to immobilized beta-catenin
T1 construct: made in house; host or cells: E. coli BL21 (DE3) pLysS
T1 sequence (P35222 134-665): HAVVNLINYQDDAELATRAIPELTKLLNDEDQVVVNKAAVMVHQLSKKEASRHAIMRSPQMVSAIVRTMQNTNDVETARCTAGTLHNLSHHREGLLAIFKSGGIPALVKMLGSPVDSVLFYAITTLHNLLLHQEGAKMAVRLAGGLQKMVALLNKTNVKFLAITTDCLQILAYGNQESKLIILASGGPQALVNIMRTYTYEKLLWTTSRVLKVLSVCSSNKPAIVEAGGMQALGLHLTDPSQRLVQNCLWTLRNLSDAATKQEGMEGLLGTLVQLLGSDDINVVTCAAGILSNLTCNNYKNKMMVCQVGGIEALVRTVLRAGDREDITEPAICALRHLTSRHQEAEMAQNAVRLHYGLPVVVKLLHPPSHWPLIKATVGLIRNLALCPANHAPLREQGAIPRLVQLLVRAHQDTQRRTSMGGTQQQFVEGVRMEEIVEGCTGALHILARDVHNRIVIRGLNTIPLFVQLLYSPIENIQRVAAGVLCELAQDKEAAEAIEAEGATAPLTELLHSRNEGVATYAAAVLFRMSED

beta-catenin [2] = target: T2, beta-catenin (Homo sapiens, UniProt P35222); assay: Competition FP, beta-catenin vs beta-catenin-binding domain of TCF4; details: read-out: IC50 (μM, TCF)
T2 construct: 10 nM full-length β-catenin (Uniprot ID P35222); 6×His-thrombin-T7-TEV (N); made in house; host or cells: E. coli BL21 (DE3) pLysS

beta-catenin [3] = target: T2, beta-catenin; assay: Competition FP, beta-catenin vs Axin-derived Helicon probe; format: binding
PD-L1:PD-1 binding = PD-L1:PD-1 binding (Homo sapiens, UniProt Q9NZQ7); details: competition ELISA, n=2
PD-L1 [4] = target: T3, PD-L1 (Homo sapiens, UniProt Q9NZQ7); details: TR-FRET
PD-L1 [5] = target: T3, PD-L1; details: SPR
PD-L1 [6] = target: T3, PD-L1; details: analytical SEC and TR-FRET experiments
MDM2 and β-catenin = target: T4, MDM2 and β-catenin (Homo sapiens, UniProt P35222+Q00987); assay: Direct FP ternary complex formation, fluorescent MDM2 and beta-catenin; format: biochemical; details: fluorescent p53-binding domain of MDM2
T4 construct: 6×His-TEV (N, cleaved yes); 6×His-yBBr-TEV (N); made in house; host or cells: E. coli BL21 (DE3) (MDM2); E. coli BL21 (DE3) pLysS (β-catenin)

MDM4 = target: T5, MDM4 (Homo sapiens, UniProt O15151, C17S); assay: Direct FP ternary complex formation, fluorescent MDM4 and beta-catenin; format: biochemical; details: fluorescent p53-binding domain of MDM4
T5 construct: 6×His-yBBr-3C (N, cleaved yes); made in house; host or cells: E. coli BL21 (DE3)
T5 sequence (O15151 14-111 C17S): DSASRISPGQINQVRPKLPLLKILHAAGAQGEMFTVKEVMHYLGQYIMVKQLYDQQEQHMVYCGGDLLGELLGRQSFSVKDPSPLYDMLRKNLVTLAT

β-catenin:MDM2 complex = target: T6, β-catenin:MDM2 complex (Homo sapiens, UniProt P35222+Q00987); assay: FP analysis of the β-catenin:MDM2 complex; format: biochemical; details: read-out: EC50 of cooperative interaction between MDM2 and the Armadillo domain of β-catenin
T6 construct: 6×His-yBBr-TEV (N); 6×His-TEV (N, cleaved yes); made in house; host or cells: E. coli BL21 (DE3) pLysS (beta-catenin); E. coli BL21 (DE3) (MDM2)

β-catenin:MDM4 complex = target: T7, β-catenin:MDM4 complex (Homo sapiens, UniProt O15151+P35222, C17S); assay: FP analysis of the β-catenin:MDM4 complex; format: biochemical; details: direct FP assay
T7 construct: 6×His-yBBr-TEV (N); 6×His-yBBr-3C (N, cleaved yes); made in house; host or cells: E. coli BL21 (DE3) pLysS (beta-catenin); E. coli BL21 (DE3) (MDM4)
T7 sequence (P35222 134-665): T1 sequence (P35222 134-665)
T7 sequence (O15151 14-111 C17S): T5 sequence (O15151 14-111 C17S)

VHL-ELOBC [7] = target: T8, VHL-ELOBC (Homo sapiens, UniProt P40337); assay: Naive Library Presenter Screening (phage, NGS), VHL-ELOBC; format: binding; details: VHL target concentration 1000 nM
T8 construct: VHL (Uniprot ID: P40337, residues 54-213) with an N-terminal 6×His-TEV tag; 6×His-TEV (N); made in house; host or cells: E. coli BL21 (DE3)

CDK2 = CDK2 (Homo sapiens, UniProt P24941); assay: CDK2 kinase activity, luminescence-based assay that detects ADP production; format: biochemical
Excerpt: Among other things, two distinct clusters of Helicons that bound both CDK2 and CDK2 in complex with its partner CyclinE1, but not to CDK1 or CDK1 in complex with its partner CyclinA2 (C51 and C52). […] In some embodiments, one or more (e.g., 1, 2 or 3) or all residues to the N-terminus side of X^4 are absent. In some embodiments, one or more (e.g., 1, 2 or 3) or all residues to the C-terminus side of X^11 are absent.

VHL-ELOBC [8] = target: T8, VHL-ELOBC; assay: Competition FP with VHL-binding fluorescent probe HXC78; details: n=3

Kd (beta-catenin [1]; SPR, beta-catenin, read-out: KD (μM, SPR)): > 10 µM
IC50 (beta-catenin [2]): > 10 µM
Compound: CC[C@H](C)[C@H](NC(=O)[C@H](CS)NC(=O)[C@H](CC(=O)O)NC(=O)[C@H](CC(=O)O)NC(=O)[C@H](CCC(N)=O)NC(=O)[C@H](C)NC(=O)[C@@H]1CCCN1C(=O)[C@H](CC(=O)O)NC(C)=O)C(=O)N[C@@H](CC(C)C)C(=O)N[C@@H](C)C(=O)N[C@@H](C)C(=O)N[C@@H](Cc1c[nH]cn1)C(=O)N[C@H](C(=O)N[C@@H](CS)C(=O)N[C@@H](C)C(=O)N[C@@H](CC(C)C)C(=O)N[C@@H](Cc1c[nH]c2ccccc12)C(N)=O)C(C)C [FP49433]

Compound: CC[C@H](C)[C@@H]1NC(=O)[C@H](C)NC(=O)[C@H](C)NC(=O)[C@H](Cc2c[nH]c3ccccc23)NC(=O)[C@H](CCC(=O)O)NC(=O)[C@@H](NC(=O)[C@H](CC(C)C)NC(=O)[C@H](CCC(=O)O)NC(=O)[C@H](CO)NC(=O)[C@H](C)NC(=O)[C@@H]2CCCN2C(=O)[C@H](CC(=O)O)NC(C)=O)CSCC(=O)Nc2ccc(cc2)NC(=O)CSC[C@@H](C(=O)N[C@@H](CC(=O)O)C(=O)N[C@@H](CC(C)C)C(=O)N[C@H](C(N)=O)C(C)C)NC(=O)[C@H](Cc2c[nH]cn2)NC1=O [FP01822]
Kd (beta-catenin [1]): 3 µM
IC50 (beta-catenin [3]): 3.7 µM

inhibition of PD-L1:PD-1 binding (PD-L1:PD-1 binding): inhibits PD-L1:PD-1 binding
induction of PD-L1 dimerization in solution (PD-L1 [4]): induce PD-L1 dimerization
competition with PD-1 for binding to PD-L1 (PD-L1 [5]): compete more potently
PD-L1 dimerization (PD-L1 [6]): Evidence of PD-L1 dimerization
Compound: Cc1cc(CN[C@H](CO)C(=O)O)c(OCc2cccc(C#N)c2)cc1OCc1cccc(-c2ccc3c(c2)OCCO3)c1C [BMS-1001]

Compound: CC[C@H](C)[C@H](NC(=O)[C@@H]1CSCC(=O)Nc2ccc(cc2)NC(=O)CSC[C@H](NC(=O)[C@H](CC(=O)O)NC(=O)[C@H](CC(N)=O)NC(=O)[C@H](C)NC(=O)[C@H](C)NC(=O)[C@H](CO)NC(=O)[C@@H](NC(=O)[C@@H]2CCCN2C(C)=O)[C@@H](C)CC)C(=O)N[C@@H](Cc2ccccc2)C(=O)N[C@@H](CCCCN)C(=O)N[C@@H](C)C(=O)N[C@@H](C)C(=O)N[C@@H](Cc2c[nH]c3ccccc23)C(=O)N[C@@H](CCC(N)=O)C(=O)N1)C(=O)N[C@H](C(=O)N[C@@H](Cc1c[nH]c2ccccc12)C(=O)N[C@@H](CC(C)C)C(=O)N[C@@H](Cc1c[nH]cn1)C(=O)N[C@@H](CCC(N)=O)C(N)=O)[C@@H](C)CC [Helicon H332]
ternary complex formation, MDM2 and β-catenin (MDM2 and β-catenin): could promote ternary complex formation
ternary complex formation with MDM4 (MDM4): did not occur
EC50 (β-catenin:MDM2 complex): 0.01 to 0.1 µM
promotion of interaction between MDM4 and β-catenin (β-catenin:MDM4 complex): not between MDM4 and β-catenin

interaction data at Target Concentration 1000 (VHL-ELOBC [7]): 0
Compound: DPAWYACMDAARVCDRT

interaction data at Target Concentration 1000 (VHL-ELOBC [7]): 0
Compound: DPAWWYCLDAAYDCDHT

Compound: Ac-WWVCAIAAIECSD-NH2 [FP33215]
inhibition of the kinase activity of CDK2 (CDK2): neither FP19711 nor FP33215 appeared to inhibit

Compound: CC(=O)N1CCC[C@H]1C(=O)N[C@@H](CC(N)=O)C(=O)N[C@@H](CC(C)C)C(=O)N[C@H](C(=O)NCC(=O)N[C@@H](C)C(=O)N[C@@H](CC(=O)O)C(=O)N[C@H]1CSCC(=O)Nc2ccc(cc2)NC(=O)CSC[C@@H](C(=O)N[C@@H](CC(C)C)C(=O)N[C@@H](CCC(N)=O)C(=O)N[C@@H](Cc2ccccc2)C(=O)N[C@@H](CC(C)C)C(=O)N[C@@H](Cc2c[nH]c3ccccc23)C(=O)N[C@@H](CC(=O)O)C(N)=O)NC(=O)[C@H](CCC(N)=O)NC(=O)[C@H](Cc2c[nH]c3ccccc23)NC(=O)[C@H](C)NC(=O)[C@H](C)NC(=O)[C@@H]2CCCN2C(=O)[C@H](Cc2ccccc2)NC1=O)[C@@H](C)O [Helicon H334]
ternary complex formation, MDM2 and β-catenin (MDM2 and β-catenin): could promote ternary complex formation
ternary complex formation with MDM4 (MDM4): did not occur
EC50 (β-catenin:MDM2 complex): 0.01 to 0.1 µM
promotion of interaction between MDM4 and β-catenin (β-catenin:MDM4 complex): not between MDM4 and β-catenin

Compound: Cc1ncsc1-c1ccc(CNC(=O)[C@@H]2C[C@@H](O)CN2C(=O)[C@@H](NC(=O)C2(C#N)CC2)C(C)(C)C)cc1 [VH298, (2S,4R)-1-((S)-2-(1-Cyanocyclopropanecarboxamido)-3,3-dimethylbutanoyl)-4-hydroxy-N-(4-(4-methylthiazol-5-yl)benzyl)pyrrolidine-2-carboxamide]
competition with HXC78 for binding VHL-ELOBC (VHL-ELOBC [8]): potently competes
